Measured values from PMC4893642 (Theranostics, 2016).
pIC50: −log10 of the molar value. “And” between values parts separate entries of the source, which are not always exact repeats. Equal values may be shown once.

Key:
CB1 receptors = CB1 receptors (Homo sapiens, UniProt P21554); test: CB1 agonist/antagonist test; type: cell-based; settings: at concentrations up to 30 µM
CB2 receptors = CB2 receptors (Homo sapiens, UniProt P34972); test: CB2 agonist/antagonist test; type: cell-based; settings: at concentrations up to 30 µM
[1] = Ex vivo whole body biodistribution in mice
human recombinant MAGL = molecular target: T1, human recombinant MAGL (Homo sapiens, UniProt Q99685); test: In vitro MAGL inhibition enzyme assay; type: biochemical; settings: 4-nitrophenylacetate substrate
T1 sequence (Q99685 1-303): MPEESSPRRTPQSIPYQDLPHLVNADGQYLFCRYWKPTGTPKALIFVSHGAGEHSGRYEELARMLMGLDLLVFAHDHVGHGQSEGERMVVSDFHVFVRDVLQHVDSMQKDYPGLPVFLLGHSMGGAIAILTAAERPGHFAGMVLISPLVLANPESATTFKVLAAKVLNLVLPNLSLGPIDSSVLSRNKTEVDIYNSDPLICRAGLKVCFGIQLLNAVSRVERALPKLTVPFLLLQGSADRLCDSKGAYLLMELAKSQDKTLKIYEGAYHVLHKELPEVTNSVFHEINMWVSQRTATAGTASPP

FAAH = molecular target: T2, FAAH (Homo sapiens, UniProt O00519); test: In vitro FAAH inhibition enzyme assay; type: biochemical; settings: read-out: inhibition of FAAH enzyme
T2 sequence (O00519 1-579): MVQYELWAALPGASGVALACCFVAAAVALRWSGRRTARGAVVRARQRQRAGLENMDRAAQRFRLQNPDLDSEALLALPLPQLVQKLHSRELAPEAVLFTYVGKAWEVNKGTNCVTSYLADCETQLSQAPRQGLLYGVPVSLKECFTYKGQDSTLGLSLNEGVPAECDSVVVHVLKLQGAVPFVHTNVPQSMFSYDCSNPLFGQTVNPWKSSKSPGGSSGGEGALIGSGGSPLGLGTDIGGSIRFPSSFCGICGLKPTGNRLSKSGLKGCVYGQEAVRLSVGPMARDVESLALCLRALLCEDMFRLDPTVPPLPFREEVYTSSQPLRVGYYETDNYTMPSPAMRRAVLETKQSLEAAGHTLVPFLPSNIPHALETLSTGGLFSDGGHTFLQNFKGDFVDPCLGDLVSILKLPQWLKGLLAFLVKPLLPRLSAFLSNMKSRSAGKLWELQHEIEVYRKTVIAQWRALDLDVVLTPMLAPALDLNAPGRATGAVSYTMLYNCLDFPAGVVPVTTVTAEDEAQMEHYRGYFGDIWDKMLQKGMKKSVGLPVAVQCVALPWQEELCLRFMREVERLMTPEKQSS

MAGL = molecular target: T3, MAGL (Rattus norvegicus, UniProt Q8R431); settings: 30 min i.v. before injection
T3 sequence (Q8R431 1-303): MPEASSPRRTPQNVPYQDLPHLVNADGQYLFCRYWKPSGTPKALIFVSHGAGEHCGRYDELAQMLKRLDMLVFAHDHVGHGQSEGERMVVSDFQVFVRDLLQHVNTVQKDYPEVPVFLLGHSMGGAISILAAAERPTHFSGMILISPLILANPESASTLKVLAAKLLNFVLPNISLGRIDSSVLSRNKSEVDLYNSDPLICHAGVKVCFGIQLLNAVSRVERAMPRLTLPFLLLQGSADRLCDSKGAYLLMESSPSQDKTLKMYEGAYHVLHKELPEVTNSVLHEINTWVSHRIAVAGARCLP

CB2 receptors, sequence (P34972 whole entry): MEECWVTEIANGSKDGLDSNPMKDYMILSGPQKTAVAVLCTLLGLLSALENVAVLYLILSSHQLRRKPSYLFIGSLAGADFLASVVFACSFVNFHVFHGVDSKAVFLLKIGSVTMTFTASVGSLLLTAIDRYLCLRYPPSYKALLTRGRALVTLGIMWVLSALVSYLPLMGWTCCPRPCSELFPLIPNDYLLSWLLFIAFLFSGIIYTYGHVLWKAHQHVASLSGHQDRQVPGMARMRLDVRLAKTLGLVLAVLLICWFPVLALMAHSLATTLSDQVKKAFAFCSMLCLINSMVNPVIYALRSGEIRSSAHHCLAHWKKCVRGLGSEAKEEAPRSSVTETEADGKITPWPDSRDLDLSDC
CB1 receptors, sequence (P21554 whole entry): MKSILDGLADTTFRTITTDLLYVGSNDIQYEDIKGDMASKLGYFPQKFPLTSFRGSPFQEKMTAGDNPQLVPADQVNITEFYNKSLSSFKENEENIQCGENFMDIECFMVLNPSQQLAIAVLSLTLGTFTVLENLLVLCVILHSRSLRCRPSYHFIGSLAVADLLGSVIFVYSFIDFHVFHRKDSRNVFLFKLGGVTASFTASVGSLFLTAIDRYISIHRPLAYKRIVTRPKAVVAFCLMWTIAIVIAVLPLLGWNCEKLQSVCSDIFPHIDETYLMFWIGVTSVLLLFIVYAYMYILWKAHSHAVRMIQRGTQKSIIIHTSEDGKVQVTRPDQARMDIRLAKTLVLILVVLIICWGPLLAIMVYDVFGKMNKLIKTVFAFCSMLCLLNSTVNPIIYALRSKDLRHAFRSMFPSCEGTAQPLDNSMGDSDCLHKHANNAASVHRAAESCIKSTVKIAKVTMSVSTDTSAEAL

Compound | CB1 receptor agonism or antagonism (CB1 receptors) | CB2 receptor agonism or antagonism (CB2 receptors) | uptake in the liver, kidneys and small intestine [1] | pIC50 (human recombinant MAGL) | inhibition at 0.5 µM (FAAH) [%] | reduction of [11C]5f uptake in cerebellum by pretreatment (MAGL; rat, blocker 1 mg/kg) [%] | reduction of [11C]5f uptake in cerebral cortex by pretreatment (MAGL; rat, blocker 1 mg/kg) [%] | reduction of [11C]5f whole brain uptake by pretreatment (MAGL; rat, blocker 1 mg/kg) [%] | effect on [11C]SAR127303 uptake and distribution in rat brain (MAGL; blocker 3 mg/kg)
O=C(OC(C(F)(F)F)C(F)(F)F)N1CCC(CNS(=O)(=O)c2ccc(Cl)cc2)CC1 [Compound 5a, 1,1,1,3,3,3-hexafluoropropan-2-yl 4-(((4-chlorophenyl)sulfonamido)methyl)piperidine-1-carboxylate] | No significant CB1 and CB2 receptors agonism or antagonism | No significant CB1 and CB2 receptors agonism or antagonism | High uptake |  |  |  |  |  | 
O=C(N1CCC(CNS(=O)(=O)c2ccc(Cl)cc2)CC1)n1cncn1 [Compound 5f, N-((1-(1H-1,2,4-triazole-1-carbonyl)piperidin-4-yl)methyl)-4-chlorobenzenesulfonamide] | No significant CB1 and CB2 receptors agonism or antagonism | No significant CB1 and CB2 receptors agonism or antagonism | High uptake | 7.41 and 7.44 | 75 | 53 | 42 | 48 | 
NC(=O)c1cccc(-c2cccc(OC(=O)NC3CCCCC3)c2)c1 [URB597, reference compound] |  |  |  |  |  |  |  |  | no effect on the uptake and distribution in rat brain
